Measured values from patent publication US20240408087A1, “TRPC6 INHIBITORY COMPOUNDS FOR TREATING SEPSIS” (Boehringer Ingelheim International GmbH, priority 2021, published 2024).

Legend:
[1] = test system: mouse CLP model; assay: Chronic model of CLP: survival rate; type: in vivo
Procedure: (§1) Two models were performed: • Acute model of CLP lasting 24 h to measure vascular hyper-permeability in lung, liver, kidney and heart tissue. The vascular hyper-permeability was followed by the extravasation of Evans blue injected intravenously and diffused and accumulated into the tissue. The vascular hyper-permeability was expressed as μg of Evans blue in 100 mg of dry tissue. • Chronic model of CLP lasting 8 days. CLP is performed on day 0 and the survival rate is followed for 8 consecutive days.
(§2) On day 0, mice were anesthetized with ketamine (80 mg kg^−1, i.p.) and xylazine (10 mg kg^−1, i.p.). A 1-1.5 cm abdominal midline incision was made, and the caecum was located and tightly ligated at half the distance between distal pole and the base of the caecum with 4-0 silk suture (mild grade). The caecum was punctured through-and-through once with a 21-gauge needle after medium ligation. A small amount of stool was extruded to ensure that the wounds were patent. Then the cecum was replaced in its original position within the abdomen, which was closed with sutures in layers. For negative control animals, a sham surgery was performed: sham-operated animals underwent identical laparotomy but without cecal ligation or puncture. The animals were resuscitated immediately after surgery with 1 mL subcutaneous normal saline and returned to their cages.
Compound 2 of WO 2019/161010 or its vehicle (0.5% natrosol 0.010% Tween 80) was given orally (5 ml/kg) at 30 mg/kg 2 h after CLP and once daily from day 1 to day 6. Adrecizumab, anti-adrenomedullin antibody, was given at 4 mg/kg i.v. only once, 1 h before CLP. 10 mice were included in each group.
In a second experiment, Compound 17 or its vehicle (0.5% natrosol 0.010% Tween 80) was given orally (5 ml/kg). Compound 17 was given at 10 mg/kg in two groups. In the first group, Compound 17 was given at 2 h after CLP and twice daily from day 1 to day 6. In the second group, Compound 17 was given at 24 h after CLP and twice daily from day 2 to day 6. 10 mice were included in each group.

[2] = test system: LPS aerosol induced lung edema; assay: LPS-induced vascular leakage in a mouse model (BALF total protein); type: in vivo; conditions: 4 h after LPS, average of two experiments
Procedure: Mice are placed in a chamber and exposed to Lipopolysaccharide (LPS, known as endotoxin and found in outer membrane of Gram-negative bacteria such as Escherichia Coli) aerosol (0.8 mg/ml) for 30 min (or Phosphate-Buffered Saline, PBS as vehicle). The TRPC6 inhibitor compound 17 is given orally 12 h and 2 h before LPS challenge. The mice are euthanized 4 h after the end of the LPS aerosol exposure. Blood is collected for plasma exposure of the compound and the lungs are flushed with 0.8 ml PBS. The broncho-alveolar-lavage is centrifuged at 500 revolutions/min for 10 min and the supernatant is collected for the measurement of total protein according to Lowry measurement by absorbance at 660 nm. The mouse LPS experiment is repeated twice, and the data of each experiment are represented in FIG. 3.1 for the first experiment and FIG. 3.2 for the second experiment. FIG. 3.3 represents the average of the two experiments expressed in percent of the LPS group.
LPS aerosol induced lung edema is characterized by a significant accumulation of Broncho-Alveolar-Lavage protein (BALF protein). […]
FIG. 3.1 and FIG. 3.2 show the amount and FIG. 3.3 the percent of total protein in BALF (Broncho Alveolar Lavage Fluid) after LPS (LipoPolySaccharide) treatment without or after pretreatment with (+) compound 17 as evaluated along the following tabular scheme

[3] = test system: mouse CLP model; assay: Acute model of CLP: vascular hyper-permeability (Evans blue extravasation); type: in vivo
Procedure: Cecal ligation puncture (CLP) is a model of polymicrobial sepsis which consists of extruding fecal content in the abdominal cavity of the animals under anesthesia.
as §1
as §2, with “Mice” for “On day 0, mice”, “cages. Experiment was terminated at 24 hrs after CLP.” for “cages.”
10 mice were included in each group.
Evans blue dye (0.1 mL at 40 mg/kg) was injected through each tail vein 30 minutes before euthanasia at 24 hours after CLP. Lung, kidney, liver and heart tissues are collected, and Evans blue was extracted in Formamide. The concentration of the Evans blue dye was calculated from a standard curve and expressed as μg/100 mg lung dry tissue. The data were analyzed by using commercially available software (Prism, version 8.3.0; GraphPad Software Inc., San Diego, CA). Different groups were compared with the one-way variance analysis (ANOVA) followed by the Dunnett test (e.g CLP group compared to treated groups). All data were expressed as a mean±SEM. The limit of the significance was taken as p values less than 0.05 (p<0.05).

[4] = target: T1, TRPC6 (Homo sapiens, UniProt Q9Y210); assay: in vitro Patch Clamp; type: cell-based
T1 sequence (Q9Y210 1-931): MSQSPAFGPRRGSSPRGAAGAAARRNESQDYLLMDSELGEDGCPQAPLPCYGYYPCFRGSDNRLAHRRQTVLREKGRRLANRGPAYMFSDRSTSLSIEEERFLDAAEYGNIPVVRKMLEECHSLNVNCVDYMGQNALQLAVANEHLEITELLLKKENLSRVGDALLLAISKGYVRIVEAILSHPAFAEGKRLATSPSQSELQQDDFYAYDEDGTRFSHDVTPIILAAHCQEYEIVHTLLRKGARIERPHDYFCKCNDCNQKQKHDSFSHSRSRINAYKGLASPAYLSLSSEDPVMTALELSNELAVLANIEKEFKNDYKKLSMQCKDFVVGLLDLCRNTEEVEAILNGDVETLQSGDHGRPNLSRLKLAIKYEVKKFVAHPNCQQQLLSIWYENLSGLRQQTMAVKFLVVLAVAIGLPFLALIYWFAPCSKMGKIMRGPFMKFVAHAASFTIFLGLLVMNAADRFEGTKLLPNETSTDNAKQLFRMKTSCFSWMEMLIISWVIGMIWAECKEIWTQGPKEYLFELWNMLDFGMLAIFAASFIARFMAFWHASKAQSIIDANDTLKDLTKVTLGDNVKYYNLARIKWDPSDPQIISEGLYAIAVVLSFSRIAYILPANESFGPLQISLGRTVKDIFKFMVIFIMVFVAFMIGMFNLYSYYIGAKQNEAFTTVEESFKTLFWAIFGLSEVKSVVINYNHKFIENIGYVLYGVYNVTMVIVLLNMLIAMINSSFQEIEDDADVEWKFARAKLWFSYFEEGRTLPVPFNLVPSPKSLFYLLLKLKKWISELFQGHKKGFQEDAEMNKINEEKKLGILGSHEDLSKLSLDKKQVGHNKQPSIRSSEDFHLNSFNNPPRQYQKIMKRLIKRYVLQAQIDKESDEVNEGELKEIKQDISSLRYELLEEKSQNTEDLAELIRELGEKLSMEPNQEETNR

[5] = Example 2, 10 mg/kg orally, therapeutic mode 2 and 8 h after CLP
[6] = Example 1, prophylactic mode, 30 mg/kg orally 2 h before and 8 h after CLP
[7] = Example 1, therapeutic mode, 30 mg/kg orally 2 h and 8 h after CLP
[8] = Example 2, 30 mg/kg orally, therapeutic mode 2 and 8 h after CLP

Adrecizumab: anti-adrenomedullin antibody
survival rate at day 8 ([1]; first experiment, 4 mg/kg i.v. only once, 1 h before CLP): 30%

COc1cc(C(=O)N2CCC(c3ccc(N)nn3)CC2)ncc1Oc1ccc(F)cc1 [Compound 17, [4-(6-Amino-pyridazin-3-yl)-piperidin-1-yl]-[5-(4-fluoro-phenoxy)-4-methoxy-pyridin-2-yl]-methanone]
reduction of BALF protein concentration ([2]; 3 mg/kg p.o. 12 h and 2 h before LPS aerosol): 56% | reduction of BALF protein concentration ([2]; 10 mg/kg p.o. 12 h and 2 h before LPS aerosol): 62% | reduction of Evans blue concentration in heart ([3]; Example 2, heart, 3 mg/kg orally, therapeutic mode 2 and 8 h after CLP): 100% | reduction of Evans blue concentration in heart ([3]; Example 2, heart, 10 mg/kg orally, therapeutic mode 2 and 8 h after CLP): 120% | reduction of Evans blue concentration in kidney [3, 5]: 95% | reduction of Evans blue concentration in liver [3, 5]: 48% | inhibition of Evans blue concentration in lung ([3]; Example 2, lung, 1 mg/kg orally, therapeutic mode 2 and 8 h after CLP): 65% | inhibition of Evans blue concentration in lung ([3]; Example 2, lung, 3 mg/kg orally, therapeutic mode 2 and 8 h after CLP): 90% | inhibition of Evans blue concentration in lung ([3]; Example 2, lung, 10 mg/kg orally, therapeutic mode 2 and 8 h after CLP): 100% | vascular leakage ([3]; summary of FIGS. 2.1 to 2.4 (CLP) and FIGS. 3.1 to 3.3 (LPS)): significantly reduces vascular leakage | survival rate at day 8 ([1]; second experiment, 10 mg/kg orally at 2 h after CLP and twice daily from day 1 to day 6): 60% | survival rate at day 8 ([1]; second experiment, 10 mg/kg orally at 24 h after CLP and twice daily from day 2 to day 6): 50% | IC50 [4]: 19 nM | IC90 [4]: 104 nM | in vitro Patch Clamp IC75 [4]: 48 nM

Nc1ccc(C2CCN(C(=O)c3ccc(Oc4ccc(C(F)(F)F)cc4)cc3)CC2)nn1 [Compound 2 of WO 2019/161010]
inhibition of Evans blue concentration in heart ([3]; Example 1, heart, therapeutic mode, 30 mg/kg orally 2 h and 8 h after CLP): 94% | inhibition of Evans blue concentration in kidney [3, 6]: 84% | inhibition of Evans blue concentration in kidney [3, 7]: 98% | inhibition of Evans blue concentration in liver [3, 6]: 71% | inhibition of Evans blue concentration in liver [3, 7]: 88% | inhibition of Evans blue concentration in lung ([3]; Example 1, lung, prophylactic mode, 30 mg/kg orally 2 h before and 8 h after CLP, 24 h after CLP): 87% | inhibition of Evans blue concentration in lung ([3]; Example 1, lung, therapeutic mode, 10 mg/kg orally 2 h and 8 h after CLP, 24 h after CLP): 87% | inhibition of Evans blue concentration in lung ([3]; Example 1, lung, therapeutic mode, 30 mg/kg orally 2 h and 8 h after CLP, 24 h after CLP): 100% | reduction of Evans blue concentration in heart ([3]; Example 2, heart, 30 mg/kg orally, therapeutic mode 2 and 8 h after CLP): 100% | reduction of Evans blue concentration in kidney [3, 8]: 90% | reduction of Evans blue concentration in liver [3, 8]: 58% | reduction of Evans blue concentration in lung tissue ([3]; Example 2, lung, 30 mg/kg orally, therapeutic mode 2 and 8 h after CLP): 94% | survival rate at day 8 ([1]; first experiment, 30 mg/kg orally 2 h after CLP and once daily from day 1 to day 6): 50% | survival rate compared with adrecizumab ([1]; first experiment, day 8): significantly superior to adrecizumab survival rate
